Test results taken from ChEMBL document CHEMBL1909046, “DrugMatrix in vitro pharmacology data”.

Tests used:
[1] = DRUGMATRIX: Serotonin (5-Hydroxytryptamine) 5-HT3 radioligand binding (ligand: [3H] GR-65630); format: cell membranes, Membrane; settings: hek293; Not Active = under 50% inhibition at 10 µM
Mu-type opioid receptor = Mu-type opioid receptor (Homo sapiens, UniProt P35372); assay: DRUGMATRIX: Opiate mu (OP3, MOP) radioligand binding (ligand: [3H] Diprenorphine); format: cell membranes, CHO-K1, Membrane; settings: cho-k1; Not Active = under 50% inhibition at 10 µM
[2] = biological target: T1, 5-hydroxytryptamine receptor 1A (Rattus norvegicus, UniProt P19327); format: cell membranes, CHO-K1, Membrane; settings: cho-k1; also: in other assays of this panel Not Active means under 50% inhibition at 10 µM
T1 sequence (P19327 whole entry): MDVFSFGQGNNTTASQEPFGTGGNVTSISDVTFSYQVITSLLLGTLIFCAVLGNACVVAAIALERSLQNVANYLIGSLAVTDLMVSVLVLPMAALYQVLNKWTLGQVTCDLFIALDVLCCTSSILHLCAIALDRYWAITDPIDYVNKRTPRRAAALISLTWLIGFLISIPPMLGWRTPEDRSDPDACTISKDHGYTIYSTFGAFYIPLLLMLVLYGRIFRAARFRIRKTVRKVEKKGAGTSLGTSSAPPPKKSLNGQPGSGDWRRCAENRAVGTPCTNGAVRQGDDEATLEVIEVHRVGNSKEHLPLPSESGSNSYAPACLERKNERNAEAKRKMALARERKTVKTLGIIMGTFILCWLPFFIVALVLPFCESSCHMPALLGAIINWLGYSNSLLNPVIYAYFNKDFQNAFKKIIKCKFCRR

Insulin receptor = Insulin receptor (Rattus norvegicus, UniProt P15127); format: cell membranes, Wistar, Liver, Membrane; also: in other assays of this panel Not Active means under 50% inhibition at 10 µM
[3] = biological target: T2, Cholecystokinin receptor type A (Homo sapiens, UniProt P32238); format: cell membranes, Membrane; settings: 1321-n1; also: in other assays of this panel Not Active means under 50% inhibition at 10 µM
T2 sequence (P32238 whole entry): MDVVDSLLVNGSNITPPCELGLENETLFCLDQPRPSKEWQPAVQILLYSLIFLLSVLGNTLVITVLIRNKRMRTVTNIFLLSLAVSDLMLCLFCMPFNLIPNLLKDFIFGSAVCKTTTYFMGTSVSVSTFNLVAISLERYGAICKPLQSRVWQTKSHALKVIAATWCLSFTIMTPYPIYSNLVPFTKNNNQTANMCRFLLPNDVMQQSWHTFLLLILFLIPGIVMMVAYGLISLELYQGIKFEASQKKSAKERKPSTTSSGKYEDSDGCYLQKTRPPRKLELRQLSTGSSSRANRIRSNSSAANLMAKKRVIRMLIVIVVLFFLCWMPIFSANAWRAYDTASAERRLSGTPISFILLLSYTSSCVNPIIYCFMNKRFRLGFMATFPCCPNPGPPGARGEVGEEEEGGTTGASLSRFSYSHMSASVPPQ

[4] = biological target: Mitogen-activated protein kinase 1 (Homo sapiens, UniProt P28482); assay: DRUGMATRIX: Protein Serine/Threonine Kinase, ERK2 enzyme inhibition (substrate: Myelin Basic Protein); design: species or system Escherichia coli; settings: Not Active = under 50% inhibition at 10 µM; read-out: IC50
Androgen receptor = biological target: T3, Androgen receptor (Rattus norvegicus, UniProt P15207); also: in other assays of this panel Not Active means under 50% inhibition at 10 µM
T3 sequence (P15207 whole entry): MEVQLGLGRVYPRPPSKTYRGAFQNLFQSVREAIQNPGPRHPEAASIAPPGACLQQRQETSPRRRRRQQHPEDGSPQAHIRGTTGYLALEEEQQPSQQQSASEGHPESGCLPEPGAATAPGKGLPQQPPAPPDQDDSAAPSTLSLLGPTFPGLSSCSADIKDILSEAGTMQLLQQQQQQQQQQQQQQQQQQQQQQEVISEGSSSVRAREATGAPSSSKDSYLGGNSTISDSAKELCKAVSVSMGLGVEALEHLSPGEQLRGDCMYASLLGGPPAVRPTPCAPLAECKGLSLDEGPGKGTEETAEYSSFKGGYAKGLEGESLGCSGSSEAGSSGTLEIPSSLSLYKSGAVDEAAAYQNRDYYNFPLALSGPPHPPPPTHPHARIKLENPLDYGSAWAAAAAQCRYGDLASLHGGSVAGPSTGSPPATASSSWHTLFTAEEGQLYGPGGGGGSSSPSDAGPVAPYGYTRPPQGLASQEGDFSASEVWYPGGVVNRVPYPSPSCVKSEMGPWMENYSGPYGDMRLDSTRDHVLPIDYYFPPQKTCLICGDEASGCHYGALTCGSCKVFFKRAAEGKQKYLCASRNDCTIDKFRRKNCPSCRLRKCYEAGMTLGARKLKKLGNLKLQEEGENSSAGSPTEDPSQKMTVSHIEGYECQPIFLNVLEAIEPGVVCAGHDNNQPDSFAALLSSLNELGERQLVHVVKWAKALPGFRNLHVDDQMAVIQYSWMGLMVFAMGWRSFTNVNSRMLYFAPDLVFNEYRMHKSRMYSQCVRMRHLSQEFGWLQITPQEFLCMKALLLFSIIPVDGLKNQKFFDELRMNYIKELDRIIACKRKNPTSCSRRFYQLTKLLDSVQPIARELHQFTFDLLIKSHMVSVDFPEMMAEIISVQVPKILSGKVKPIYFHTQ

Sequence of Mu-type opioid receptor (P35372 whole entry): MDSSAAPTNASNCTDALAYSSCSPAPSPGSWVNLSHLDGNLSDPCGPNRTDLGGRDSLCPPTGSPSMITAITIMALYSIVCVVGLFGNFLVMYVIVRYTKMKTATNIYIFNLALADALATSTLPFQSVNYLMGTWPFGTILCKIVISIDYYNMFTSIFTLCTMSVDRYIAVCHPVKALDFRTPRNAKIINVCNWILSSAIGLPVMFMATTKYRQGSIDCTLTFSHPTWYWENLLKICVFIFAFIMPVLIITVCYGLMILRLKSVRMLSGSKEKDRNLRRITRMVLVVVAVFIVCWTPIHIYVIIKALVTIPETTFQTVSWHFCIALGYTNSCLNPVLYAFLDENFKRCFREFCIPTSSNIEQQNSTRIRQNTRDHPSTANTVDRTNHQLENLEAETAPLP
Sequence of Insulin receptor (P15127 27-759 limits assumed): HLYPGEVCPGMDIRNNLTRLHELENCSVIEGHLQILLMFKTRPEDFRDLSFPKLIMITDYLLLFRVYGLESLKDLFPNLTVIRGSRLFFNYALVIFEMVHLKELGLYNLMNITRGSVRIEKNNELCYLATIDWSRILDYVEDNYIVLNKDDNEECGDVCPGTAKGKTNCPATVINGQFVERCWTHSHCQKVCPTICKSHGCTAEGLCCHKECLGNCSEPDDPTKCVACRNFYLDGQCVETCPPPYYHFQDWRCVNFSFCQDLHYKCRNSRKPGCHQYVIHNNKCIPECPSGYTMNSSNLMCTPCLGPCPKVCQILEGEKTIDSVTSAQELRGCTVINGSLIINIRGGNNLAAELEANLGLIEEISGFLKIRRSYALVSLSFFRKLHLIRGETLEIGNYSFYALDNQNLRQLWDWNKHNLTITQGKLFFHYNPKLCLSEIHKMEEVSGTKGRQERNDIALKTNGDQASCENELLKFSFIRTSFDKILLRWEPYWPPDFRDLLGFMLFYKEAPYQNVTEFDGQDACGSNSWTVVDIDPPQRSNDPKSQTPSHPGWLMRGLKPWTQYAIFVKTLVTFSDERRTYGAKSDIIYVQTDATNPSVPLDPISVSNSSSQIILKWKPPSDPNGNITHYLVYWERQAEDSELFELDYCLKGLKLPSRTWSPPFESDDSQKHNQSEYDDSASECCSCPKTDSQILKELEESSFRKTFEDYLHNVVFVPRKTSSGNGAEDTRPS
Sequence of Insulin receptor (P15127 764-1383 limits assumed): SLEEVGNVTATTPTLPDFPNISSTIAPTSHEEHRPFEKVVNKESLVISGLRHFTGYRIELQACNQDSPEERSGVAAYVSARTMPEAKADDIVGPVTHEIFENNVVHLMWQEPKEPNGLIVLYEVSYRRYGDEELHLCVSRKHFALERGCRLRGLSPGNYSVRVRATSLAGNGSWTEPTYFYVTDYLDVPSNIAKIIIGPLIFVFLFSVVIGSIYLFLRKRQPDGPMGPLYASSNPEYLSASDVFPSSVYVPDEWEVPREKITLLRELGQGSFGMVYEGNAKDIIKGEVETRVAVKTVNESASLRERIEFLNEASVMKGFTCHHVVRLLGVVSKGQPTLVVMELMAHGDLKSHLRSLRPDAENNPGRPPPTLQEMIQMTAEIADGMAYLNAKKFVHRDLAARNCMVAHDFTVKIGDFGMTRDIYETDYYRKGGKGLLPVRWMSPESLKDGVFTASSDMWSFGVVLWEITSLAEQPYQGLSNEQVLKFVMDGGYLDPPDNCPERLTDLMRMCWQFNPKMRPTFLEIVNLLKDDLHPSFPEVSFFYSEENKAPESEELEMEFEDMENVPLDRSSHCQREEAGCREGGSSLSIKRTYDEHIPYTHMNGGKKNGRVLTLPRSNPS
Sequence of Mitogen-activated protein kinase 1 (P28482 whole entry): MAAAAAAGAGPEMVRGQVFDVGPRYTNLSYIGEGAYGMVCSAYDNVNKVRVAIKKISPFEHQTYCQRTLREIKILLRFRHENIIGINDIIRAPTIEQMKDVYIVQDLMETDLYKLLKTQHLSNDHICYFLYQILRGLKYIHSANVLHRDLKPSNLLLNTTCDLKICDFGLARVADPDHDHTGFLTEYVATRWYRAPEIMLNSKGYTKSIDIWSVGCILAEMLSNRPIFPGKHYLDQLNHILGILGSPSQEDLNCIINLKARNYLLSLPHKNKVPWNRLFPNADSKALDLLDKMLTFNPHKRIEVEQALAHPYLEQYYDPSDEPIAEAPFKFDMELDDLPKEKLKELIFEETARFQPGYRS

With `O=C(/C=C/c1ccc(O)c(O)c1)OCCc1ccccc1` [CAFFEIC ACID PHENETHYL ESTER] as the compound, how does the IC50 [1] read?
Its IC50 is “Not Active”.

And the Ki [1]?
The Ki was “Not Active”.

What about the IC50 (Mu-type opioid receptor) of the same compound?
Its IC50 is “Not Active”.

And the IC50 [2]?
The IC50 was “Not Active”.

What about the IC50 (Insulin receptor) of the same compound?
The IC50 was “Not Active”.

What about the IC50 [3] of the same compound?
The IC50 was “Not Active”.

What about the IC50 [4] of the same compound?
The IC50 was 686 nM.

What about the IC50 (Androgen receptor) of the same compound?
The IC50 was “Not Active”.
